These results are taken from ChEMBL document CHEMBL5465560, “Selectivity Literature for EUbOPEN Chemogenomic Library” (2024).

SMILES strings stand for the structures.

Test [1] deals with T1, Protein kinase C epsilon type (Homo sapiens) (UniProt Q02156).
T1 sequence (whole entry): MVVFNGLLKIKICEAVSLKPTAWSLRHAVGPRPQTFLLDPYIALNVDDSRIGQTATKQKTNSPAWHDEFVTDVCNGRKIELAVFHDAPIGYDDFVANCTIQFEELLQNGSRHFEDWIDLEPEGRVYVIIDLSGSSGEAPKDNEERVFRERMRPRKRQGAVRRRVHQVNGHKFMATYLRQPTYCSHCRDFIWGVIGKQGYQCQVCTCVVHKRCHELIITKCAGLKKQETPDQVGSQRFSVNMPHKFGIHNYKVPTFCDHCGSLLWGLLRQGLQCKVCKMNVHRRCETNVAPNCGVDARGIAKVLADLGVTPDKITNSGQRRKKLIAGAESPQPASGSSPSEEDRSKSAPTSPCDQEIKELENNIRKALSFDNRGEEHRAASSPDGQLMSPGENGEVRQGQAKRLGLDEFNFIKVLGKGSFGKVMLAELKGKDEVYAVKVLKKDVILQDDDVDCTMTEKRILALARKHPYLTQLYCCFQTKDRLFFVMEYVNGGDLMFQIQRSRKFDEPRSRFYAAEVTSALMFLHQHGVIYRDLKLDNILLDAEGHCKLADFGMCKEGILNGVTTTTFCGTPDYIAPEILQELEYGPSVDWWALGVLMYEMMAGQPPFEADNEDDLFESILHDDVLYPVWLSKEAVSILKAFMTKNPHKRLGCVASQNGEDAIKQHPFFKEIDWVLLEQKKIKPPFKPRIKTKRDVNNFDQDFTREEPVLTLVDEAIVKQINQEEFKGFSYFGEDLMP
Briefly: Selectivity interaction (KinomeScan (DiscoverX)) EUB0000229b PRKCE. The settings on record: at 10 µM.

Test [2] has as its target Cyclin-dependent kinase 3 (Homo sapiens) (UniProt Q00526). Briefly: Selectivity interaction (KinomeScan (DiscoverX)) EUB0001619a CDK3. The settings on record: at 1 µM.
For test [3], the target named is eIF-2-alpha kinase GCN2 (Homo sapiens) (UniProt Q9P2K8). The test is described as follows: Selectivity interaction (ActivX KiNativ screen (kinase selectivity in THP-1 cell lysates)) EUB0000639a EIF2AK4. Type of test: subcellular. The following applies: lysate, at 0.01 µM.
In test [4] the target is T2, Mitogen-activated protein kinase kinase kinase kinase 2 (Homo sapiens) (UniProt Q12851).
T2 sequence (whole entry): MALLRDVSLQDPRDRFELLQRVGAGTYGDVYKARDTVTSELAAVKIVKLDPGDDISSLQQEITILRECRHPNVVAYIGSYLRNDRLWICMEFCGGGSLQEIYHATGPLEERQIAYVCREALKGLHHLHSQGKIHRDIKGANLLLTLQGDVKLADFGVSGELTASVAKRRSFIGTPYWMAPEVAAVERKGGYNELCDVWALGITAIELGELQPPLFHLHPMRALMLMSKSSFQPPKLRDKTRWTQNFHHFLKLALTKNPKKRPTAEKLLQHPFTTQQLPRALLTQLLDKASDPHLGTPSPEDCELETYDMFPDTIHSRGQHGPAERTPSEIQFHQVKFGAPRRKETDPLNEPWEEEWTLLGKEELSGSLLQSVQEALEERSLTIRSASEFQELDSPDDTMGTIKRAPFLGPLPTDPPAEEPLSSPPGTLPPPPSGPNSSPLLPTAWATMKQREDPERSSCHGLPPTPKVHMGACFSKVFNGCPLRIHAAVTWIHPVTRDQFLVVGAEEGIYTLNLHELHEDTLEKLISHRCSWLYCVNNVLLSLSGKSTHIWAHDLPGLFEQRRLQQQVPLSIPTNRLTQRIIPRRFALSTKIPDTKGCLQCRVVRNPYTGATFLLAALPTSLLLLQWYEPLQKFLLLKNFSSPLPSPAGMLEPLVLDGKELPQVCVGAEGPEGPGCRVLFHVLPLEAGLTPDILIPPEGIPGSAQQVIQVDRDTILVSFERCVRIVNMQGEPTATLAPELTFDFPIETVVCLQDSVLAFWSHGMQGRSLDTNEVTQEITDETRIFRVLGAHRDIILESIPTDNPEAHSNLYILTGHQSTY
The test is described as follows: Selectivity interaction (Kinase panel (Invitrogen)) EUB0000639a MAP4K2. The following applies: at 200 nM.

The target of test [5] is Mitogen-activated protein kinase 9 (Homo sapiens, UniProt P45984). The test is described as follows: Selectivity interaction (ActivX KiNativ screen (kinase selectivity in THP-1 cell lysates)) EUB0000639a MAPK9. The class given is subcellular. The following applies: lysate, at 0.2 µM.
Test [6] has as its target Zinc finger CW-type PWWP domain protein 1 (Homo sapiens) (UniProt Q9H0M4). The test is described as follows: Selectivity interaction (PWWP, WD40, and Tudor domain panel (DSLS measurements, literature)) EUB0000270b ZCWPW1.
Test [7] concerns the target Protein-tyrosine kinase 6 (Homo sapiens, UniProt Q13882). Briefly: Selectivity interaction (KinomeScan (DiscoverX)) EUB0000092b PTK6. The following applies: at 10 µM.
Test [8] addresses T3, Dual specificity mitogen-activated protein kinase kinase 5 (Homo sapiens) (UniProt Q13163).
T3 sequence (whole entry): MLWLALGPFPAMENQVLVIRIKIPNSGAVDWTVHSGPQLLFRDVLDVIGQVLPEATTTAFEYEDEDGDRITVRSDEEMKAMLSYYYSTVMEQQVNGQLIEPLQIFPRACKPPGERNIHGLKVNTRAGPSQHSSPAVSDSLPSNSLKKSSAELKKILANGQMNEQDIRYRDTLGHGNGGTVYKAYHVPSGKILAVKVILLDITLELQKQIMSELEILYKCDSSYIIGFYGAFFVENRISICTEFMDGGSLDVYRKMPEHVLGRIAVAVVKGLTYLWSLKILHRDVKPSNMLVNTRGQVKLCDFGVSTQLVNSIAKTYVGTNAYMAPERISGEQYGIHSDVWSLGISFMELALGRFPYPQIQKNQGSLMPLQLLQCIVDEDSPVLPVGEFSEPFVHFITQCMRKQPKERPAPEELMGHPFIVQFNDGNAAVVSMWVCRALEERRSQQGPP
The test is described as follows: Selectivity interaction (KinomeScan (DiscoverX)) EUB0000045b MAP2K5.

Chain of Zinc finger CW-type PWWP domain protein 1 (Homo sapiens) (Q9H0M4 whole entry, the tested form may be a part): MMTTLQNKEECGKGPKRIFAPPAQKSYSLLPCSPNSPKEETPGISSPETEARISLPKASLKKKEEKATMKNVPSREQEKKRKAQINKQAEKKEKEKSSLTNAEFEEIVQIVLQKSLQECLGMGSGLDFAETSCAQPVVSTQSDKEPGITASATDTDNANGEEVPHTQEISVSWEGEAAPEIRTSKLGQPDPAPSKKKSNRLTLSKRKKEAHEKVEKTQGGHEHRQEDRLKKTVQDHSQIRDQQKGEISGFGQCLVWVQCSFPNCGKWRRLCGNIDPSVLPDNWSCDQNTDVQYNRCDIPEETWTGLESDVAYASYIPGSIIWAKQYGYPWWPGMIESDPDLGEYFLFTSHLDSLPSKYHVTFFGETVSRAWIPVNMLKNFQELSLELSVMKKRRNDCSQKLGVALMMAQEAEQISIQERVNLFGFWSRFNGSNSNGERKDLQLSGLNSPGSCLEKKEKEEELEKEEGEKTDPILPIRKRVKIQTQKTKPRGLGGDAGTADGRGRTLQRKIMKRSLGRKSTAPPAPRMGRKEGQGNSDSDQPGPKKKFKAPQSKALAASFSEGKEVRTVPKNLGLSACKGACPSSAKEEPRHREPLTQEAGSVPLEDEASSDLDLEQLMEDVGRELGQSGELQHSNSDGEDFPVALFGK
Chain of Mitogen-activated protein kinase 9 (P45984 whole entry, looked up, the tested form may be a part): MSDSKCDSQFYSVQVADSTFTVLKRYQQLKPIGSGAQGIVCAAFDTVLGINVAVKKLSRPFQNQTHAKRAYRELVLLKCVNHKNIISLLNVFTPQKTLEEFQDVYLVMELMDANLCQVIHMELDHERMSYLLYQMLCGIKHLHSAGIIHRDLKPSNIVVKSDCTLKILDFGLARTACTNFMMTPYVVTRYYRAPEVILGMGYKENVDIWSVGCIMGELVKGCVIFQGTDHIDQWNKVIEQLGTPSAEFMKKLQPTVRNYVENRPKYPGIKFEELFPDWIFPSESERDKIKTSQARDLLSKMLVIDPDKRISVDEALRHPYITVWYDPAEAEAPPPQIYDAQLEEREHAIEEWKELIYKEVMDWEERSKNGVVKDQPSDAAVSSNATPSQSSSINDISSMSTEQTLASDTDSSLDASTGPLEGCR
Chain of Cyclin-dependent kinase 3 (Homo sapiens) (Q00526 whole entry, looked up): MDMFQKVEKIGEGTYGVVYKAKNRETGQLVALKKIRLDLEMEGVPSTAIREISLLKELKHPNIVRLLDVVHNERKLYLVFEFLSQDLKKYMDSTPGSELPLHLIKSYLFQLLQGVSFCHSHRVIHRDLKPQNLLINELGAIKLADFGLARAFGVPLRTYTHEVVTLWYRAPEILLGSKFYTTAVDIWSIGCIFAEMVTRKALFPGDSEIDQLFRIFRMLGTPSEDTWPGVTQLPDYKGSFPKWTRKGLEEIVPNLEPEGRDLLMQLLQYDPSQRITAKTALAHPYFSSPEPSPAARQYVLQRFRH
Chain of Protein-tyrosine kinase 6 (Q13882 whole entry, looked up): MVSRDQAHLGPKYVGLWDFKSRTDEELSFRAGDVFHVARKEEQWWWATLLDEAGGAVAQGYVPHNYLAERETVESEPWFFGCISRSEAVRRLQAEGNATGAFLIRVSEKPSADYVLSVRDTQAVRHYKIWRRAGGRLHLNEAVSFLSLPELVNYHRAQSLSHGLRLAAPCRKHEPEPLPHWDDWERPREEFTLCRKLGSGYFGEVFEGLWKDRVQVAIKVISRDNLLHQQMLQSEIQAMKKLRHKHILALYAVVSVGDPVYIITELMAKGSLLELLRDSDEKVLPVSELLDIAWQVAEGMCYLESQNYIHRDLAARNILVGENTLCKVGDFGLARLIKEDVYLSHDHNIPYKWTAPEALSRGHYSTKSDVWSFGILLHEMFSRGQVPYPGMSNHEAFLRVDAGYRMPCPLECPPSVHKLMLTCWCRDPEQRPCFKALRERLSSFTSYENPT
Chain of eIF-2-alpha kinase GCN2 (Homo sapiens) (Q9P2K8 whole entry): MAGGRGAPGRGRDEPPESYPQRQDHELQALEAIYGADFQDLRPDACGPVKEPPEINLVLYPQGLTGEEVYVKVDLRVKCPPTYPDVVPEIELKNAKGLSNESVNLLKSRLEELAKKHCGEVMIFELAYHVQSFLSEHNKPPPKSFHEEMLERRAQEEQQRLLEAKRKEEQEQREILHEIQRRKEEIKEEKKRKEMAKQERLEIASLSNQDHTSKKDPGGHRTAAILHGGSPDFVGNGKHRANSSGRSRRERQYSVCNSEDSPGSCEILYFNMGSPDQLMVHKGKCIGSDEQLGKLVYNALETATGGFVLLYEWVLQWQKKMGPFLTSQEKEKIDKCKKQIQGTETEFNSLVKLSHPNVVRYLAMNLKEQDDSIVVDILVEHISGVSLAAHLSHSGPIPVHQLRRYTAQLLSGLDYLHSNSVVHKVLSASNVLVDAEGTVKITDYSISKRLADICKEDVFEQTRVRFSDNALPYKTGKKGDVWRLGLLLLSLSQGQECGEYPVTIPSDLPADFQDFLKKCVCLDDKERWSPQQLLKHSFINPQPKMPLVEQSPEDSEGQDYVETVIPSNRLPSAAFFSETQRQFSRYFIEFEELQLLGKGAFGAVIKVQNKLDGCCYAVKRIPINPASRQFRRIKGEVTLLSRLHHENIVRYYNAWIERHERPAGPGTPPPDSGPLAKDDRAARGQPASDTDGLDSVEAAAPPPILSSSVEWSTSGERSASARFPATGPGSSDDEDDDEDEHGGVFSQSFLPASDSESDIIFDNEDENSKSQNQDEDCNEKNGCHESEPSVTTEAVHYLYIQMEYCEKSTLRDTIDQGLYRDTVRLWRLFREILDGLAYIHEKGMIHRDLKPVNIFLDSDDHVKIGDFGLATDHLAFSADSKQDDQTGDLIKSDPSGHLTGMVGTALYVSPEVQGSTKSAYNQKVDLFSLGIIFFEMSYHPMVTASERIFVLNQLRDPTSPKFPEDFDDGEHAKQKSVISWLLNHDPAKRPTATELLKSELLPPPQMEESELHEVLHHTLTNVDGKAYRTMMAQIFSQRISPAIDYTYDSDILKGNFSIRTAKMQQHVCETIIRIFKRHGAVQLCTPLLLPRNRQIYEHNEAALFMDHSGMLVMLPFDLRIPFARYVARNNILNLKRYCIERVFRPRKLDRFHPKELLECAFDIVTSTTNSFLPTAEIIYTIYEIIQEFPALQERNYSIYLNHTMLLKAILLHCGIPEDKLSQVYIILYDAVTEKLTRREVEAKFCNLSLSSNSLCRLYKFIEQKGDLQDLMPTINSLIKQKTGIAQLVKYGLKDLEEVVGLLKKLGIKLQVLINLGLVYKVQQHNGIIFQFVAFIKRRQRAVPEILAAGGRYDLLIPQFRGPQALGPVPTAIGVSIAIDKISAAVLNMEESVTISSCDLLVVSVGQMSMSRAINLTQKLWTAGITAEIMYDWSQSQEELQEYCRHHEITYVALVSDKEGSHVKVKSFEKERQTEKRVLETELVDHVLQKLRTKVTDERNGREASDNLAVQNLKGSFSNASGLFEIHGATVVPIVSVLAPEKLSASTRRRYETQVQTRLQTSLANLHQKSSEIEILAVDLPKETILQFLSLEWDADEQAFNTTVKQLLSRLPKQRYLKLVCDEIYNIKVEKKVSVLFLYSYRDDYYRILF

As for `COc1cc(N(C)c2ccnc3ccc(C(F)(F)F)cc23)cc(OC)c1OC`, the % binding in test [1] turned out to be 55%.
In test [2], `N#Cc1cccc(-c2c[nH]c3ncnc(N4CCOCC4)c23)c1` showed a % of control of 93%.
For `CC[C@@H]1[C@H](F)C(=O)N[C@@H]1COc1nccc2cc(C(N)=O)c(OC)cc12` [ZIMLOVISERTIB], the values for the % of inhibition in test [3], in test [4] and in test [5] were 2%, 2.66% and -0.3%, respectively.
Compound `Cc1cc(CN)cc(C)c1-c1ncn(C)c1-c1cncn1C` displayed a dTagg in test [6] of 0 K.
For `CCC(=O)N1CCN(c2ccc(-n3c(=O)ccc4cnc5ccc(-c6cnc7ccccc7c6)cc5c43)cc2C(F)(F)F)CC1`, in test [7], the % of control is 51%.
Take `C=CC(=O)Nc1cc(-n2c(=O)ccc3cnc4ccc(-c5ccc(NS(C)(=O)=O)cc5)cc4c32)ccc1C`: the % of control was determined as 100% in test [8] (at 1 µM) and 64% in test [8] (at 10 µM).
